In US7098195B2, “Fluorinated glucosamine analogs useful for modulating post-translational glycosylations on cells” (Health Research, Inc., priority 2001, dated 2006):
Read-outs that look alike come from different tables or passages of the source.

Experiments:
[1] = system: HCELL/CD44 activity on human hematopoietic KG1a cells; assay: Stamper-Woodruff adhesion assay, L-selectin-dependent lymphocyte adherence to KG1a cells; format: cell-based; details: for relative potency as inhibitor of HCELL activity: 4-F-GlcNAc vs swainsonine, tunicamycin vs both
Excerpt: To study the effects of 4-F-GlcNAc on the function of the L-selectin binding activity of CD44 (HCELL), we employed the shear-based, Stamper-Woodruff adhesion assay to examine the ability of 4-F-GlcNAc-treated KG1a cells to support L-selectin-dependent lymphocyte adherence. This assay is utilized to specifically assess the shear-dependent binding interactions between L-selectin naturally expressed on lymphocytes and HCELL expressed on KG1a cells (Dimitroff, C. J. et al. (2000) Proc. Nat. Acad. Sci., 97(25):13841–46; Sackstein, R. and Dimitroff, C. J. (2000) Blood, 96: 2765–74.). Before treating KG1a cells with 0.05, 0.1 or 0.5 mM 4-F-GlcNAc, we first pretreated KG1a cells with Vibrio cholerae neuraminidase (0.1 U/ml for 1 hr at 37° C.) to cleave all terminal α2,3 sialic acid-bearing residues and eliminate all HCELL activity. Glutaraldehyde-fixed monolayers of KG1a cells that were first treated with Vibrio cholerae neuraminidase (0.1 U/ml for 1 hr at 37° C.) then re-cultured in the presence of 4-F-GlcNAc (0.05–0.5 mM) for 30 hr at 37° C. Metabolic inhibitors swainsonine, an inhibitor of α-mannosidase II, tunicamycin, an inhibitor of N-acetylglucosamine phosphototransferase, were also utilized to compare the relative potencies of known glycosylation inhibitors. Human peripheral blood lymphocytes (5×10^6cells/ml RPMI1640 w/o NaBicarbonate/5%FBS) were overlayed onto KG1a monolayers at 80 rpm for 30 min. at 4° C., and after gently washing in PBS, lymphocytes bound to cell monolayers were fixed in 3% glutaraldehyde. Re-expression of HCELL activity or HECA-452-reactive CD44 on KG1a cells was determined after […] of 4-F-GlcNAc treatment. Bound lymphocytes were quantified at 100× magnification from a minimum of 5 fields from 2 slides, and the mean number of lymphocytes (standard error of the mean) was calculated.

[2] = system: HECA-452 epitopes on PSGL-1; assay: Western blot of HECA-452 epitopes on PSGL-1 of CLA+ T-cells; format: cell-based, human
Method: For analysis of CLA expression on T-cells treated with glycoconjugate modifiers, CLA^+ T-cells were first pretreated with neuraminidase (0.1 U/ml at 37° C. for 1 h) to eliminate functional CLA and cleave all HECA-452 reactive epitopes from the cell surface (35–38). Since we wanted to investigate whether these compounds directly affected CLA expression and function, neuraminidase pretreatment followed by incubations with glycosylation modifiers allowed for examination of de novo synthesized CLA/HECA-452 epitopes re-expressed on the cell surface. After neuraminidase digestion, cells were then incubated with tunicamycin (0.02 mM) (an inhibitor of GlcNAc phosphotransferase, the initial step of N-glycosylation), swainsonine (0.23 mM) (an inhibitor of α-mannosidase II and complex-type N-glycosylation), 4-F-GlcNAc (0.05 mM) (putative inhibitor of poly-N-acetyllactosamine biosynthesis), BAG (an inhibitor of O-glycan biosynthesis) (<2 mM) or GlcNAc (5 mM) (negative control, naturally-occurring metabolic counterpart of 4-F-GlcNAc)for 30 h in the presence of human recombinant IL-2. […] Concentrations for BAG were selected based on maximal O-glycosylation inhibitory effects at non-growth inhibitory concentrations as previously reported (39). To determine a suitable concentration of 4-F-GlcNAc for examining glycoconjugate-modifying effects without influencing cell growth or protein synthesis, we performed preliminary growth inhibitory experiments of cells incubated with 4-F-GlcNAc for 2 cell doublings (˜36 h) at 37° C. (cell viability assessed by Trypan-blue exclusion).
For lysate preparation, cells (including radiolabeled cells) were washed 3× in ice cold PBS and lysed in buffer containing 150 mM NaCl, 50 mM Tris-HCl pH 7.4, 1 mM EDTA, 0.02% NaAzide, 20 μg/ml PMSF, Complete™ protease inhibitors cocktail tablets (Roche Molecular Biochemicals) and 2% NP-40 (250 μl/10^8 cells). Following 2 h incubation on ice, insoluble cellular debris was pelleted by centrifugation for 30 min at 10,000×g at 4° C. and solubilized protein lysate was collected and quantified by Bradford protein assay (Sigma Chemical). SDS was added to a final concentration of 1% in lysate preparations utilized for immunoprecipitation experiments.
For SDS-PAGE and Western blotting, cell lysates, membrane proteins or immunoprecipitates were diluted and boiled in reducing sample buffer, and separated on 7–9% SDS-PAGE gels. Resolved protein was transferred to Sequi-blot™ PVDF membrane (Bio-Rad, Inc., Hercules, Calif.) and blocked with FBS for 1 hr at RT. Blots were incubated with rat IgM anti-human CLA HECA-452 (1 μg/ml), mouse IgG anti-human PSGL-1 moAbs PL-2 (1 μg/ml), 203, 4F9 and 4D8 (1 μg each/ml), or mouse IgG anti-human CD43 L60 (1 μg/ml) for 1 hr at RT. Isotype control immunoblots using either rat IgM or mouse IgG were performed in parallel to evaluate non-specific reactive proteins. After three washes with PBS/0.1%Tween-20 (10 min/wash), blots were incubated with the respective secondary Ab, AP-conjugated goat anti-rat IgM (1:400) or goat anti-mouse IgG (1:8000). AP substrate, Western Blue® (Promega, Madison, Wis.) was then added to develop blots.
Cells were then re-cultured in the presence of glycosylation inhibitor, diluent control (PBS) or molecular control (GlcNAc) for 30 hr and then harvested for CLA expression and functional analysis. […] To assess the duration of anti-carbohydrate effects on HECA-452 expression on PSGL-1, cells treated with 4-F-GlcNAc for 30 h and were then re-cultured in non-4-F-GlcNAc-containing medium for 72 h.

[3] = 30 h after neuraminidase, tunicamycin 0.02 mM, swainsonine 0.23 mM, 4-F-GlcNAc 0.05 mM, BAG 2.0 mM, GlcNAc 5.0 mM

CC(=O)N[C@H]1C(OC(C)=O)O[C@H](COC(C)=O)[C@@H](F)[C@@H]1OC(C)=O (stereo partly drawn) [4-F-GlcNAc, 2-acetamido-2-deoxy-1,3,6-tri-O-acetyl-4-deoxy-4-fluoro-D-glucopyranose]
relative potency as inhibitor of HCELL activity [1]: more potent inhibitor of HCELL activity | inhibition at 50 µM ([1]; Homo sapiens, KG-1a, KG1a neuraminidase then recovery in 0.05 mM, read-out: % Inhibition (lymphocyte binding)): 60% | inhibition at 100 µM ([1]; Homo sapiens, KG-1a, KG1a neuraminidase then recovery in 0.1 mM, read-out: % Inhibition (lymphocyte binding)): 78% | inhibition at 500 µM ([1]; Homo sapiens, KG-1a, KG1a neuraminidase then recovery in 0.5 mM, read-out: % Inhibition (lymphocyte binding)): 94% | Mean Lymphocyte Binding ([1]; KG1a neuraminidase then recovery in 0.05 mM): 93.6 | Mean Lymphocyte Binding ([1]; KG1a neuraminidase then recovery in 0.1 mM): 50.6 | Mean Lymphocyte Binding ([1]; KG1a neuraminidase then recovery in 0.5 mM): 15.4 | potency at lowering HECA-452 expression relative to BAG, on a molar basis [2]: more potent than BAG | de novo synthesized HECA-452 epitopes on PSGL-1 (Western blot) [2, 3]: marked reduction | duration of suppression of HECA-452 expression on PSGL-1 after removal of drug ([2]; treated for 30 h then re-cultured in non-4-F-GlcNAc-containing medium for 72 h): 48 h

CC(=O)N[C@H]1C(O)O[C@H](CO)[C@@H](O)[C@@H]1O (stereo partly drawn) [GlcNAc, N-acetylglucosamine]
de novo synthesized HECA-452 epitopes on PSGL-1 (Western blot) [2, 3]: not affected

O[C@H]1[C@H]2[C@H](O)CCCN2C[C@H]1O [swainsonine]
inhibition at 230 µM ([1]; Homo sapiens, KG-1a, KG1a neuraminidase then recovery in 0.23 mM, read-out: % Inhibition (lymphocyte binding)): 74% | Mean Lymphocyte Binding ([1]; KG1a neuraminidase then recovery in 0.23 mM): 60.7 | de novo synthesized HECA-452 epitopes on PSGL-1 (Western blot) [2]: not affected

tunicamycin
relative potency as inhibitor of HCELL activity [1]: more potent inhibitor of HCELL activity than both swainsonine and 4-F-GlcNAc | de novo synthesized HECA-452 epitopes on PSGL-1 (Western blot) [2]: marked reduction | potency at lowering HECA-452 expression relative to 4-F-GlcNAc, on a molar basis [2]: 2.5 fold | effects on HECA-452 expression ([2]; below 0.015 mM, preliminary, data not shown): minimal effects
